Results: US10792257B2, “Pharmaceutical compositions comprising safinamide” (Zambon S.P.A., priority 2016, dated 2020)

Key:
[1] = Organoleptic characteristics of the active ingredient as noted by the inventors; conditions: for irritation of the mucosae: unmasked active ingredient, oropharynx
[2] = Solubility in saliva; type: physicochemical

Compound	irritation of the mucosae [1]	irritant effect in the oral cavity ([1]; attempts to modify the pH of the pharmaceutical preparation)	solubility in saliva [2]
(2 S)-2-[[4-[(3-fluorophenypmethoxy]phenyl]methyl amino]propanamide [safinamide]	pronounced tendency to irritate the mucosae of the first section of the oropharynx	–	–
C[C@H](NCc1ccc(OCc2cccc(F)c2)cc1)C(N)=O [safinamide methanesulfonate, Safinamide methanesulfonate]	pronounced tendency to irritate the mucosae of the first section of the oropharynx	did not lead to a reduction of the irritant effect	fairly soluble in saliva
